# Experimental data reported in patent US11745001B2, “Therapeutic bandage” (University of Connecticut, priority 2020, dated 2023).
# Text: FIG. 4A illustrates a microneedle base 44 showing the hollow channel 50. FIG. 4B illustrates the microneedle base 44 coupled to the rapid-dissolving tips 40, which include tattoo ink. In one embodiment, the therapeutic bandage 10 may be producing the microneedles 26 and then coupling the microneedles 26 to the bandage matrix 30. In some embodiments, the microneedles 26 may be integrally formed with a portion of the bandage matrix 30. The microneedles are produced by forming the base 44, with the microchannel 50, and loading the base […] with the second immunomodulatory compound. The tip 40 is then produced and loaded with the first immunomodulatory compound. The tip 40 is then coupled to the base 44 to seal the microchannel […]. To test the mechanical strength of the microneedles 26, the tips 40 were loaded with insoluble tattoo ink (FIG. 4B). The microneedles 26 were then applied to cultured human skin explants using a 1 Newton application force. […] FIG. 4E illustrates a longitudinal section of explanted human skin showing spacing of microneedle deposition in the dermal layer. The kinetics of drug release were then measured using epifluorescence microscopy and two fluorescent dyes.
structure (smiles),measurement,value
CCN(CC)c1ccc2c(-c3ccc(S(=O)(=O)O)cc3S(=O)(=O)[O-])c3ccc(=[N+](CC)CC)cc-3oc2c1 [sulforhodamine B],diffusion radius compared with the tip dye,approximately equal diffusion radius
same,release of red fluorescence from the microneedle base,after about one hour
same,visibility of dye,barely visible
